Experimental data: the supplement of paper PMC11208160

experiment: recombinant UMI read abundance after kanamycin selection (control-corrected) (log10(CPM+1)); higher = more efficient recombination; extreme values may be limits of the assay; sequences stand for … in AGTGCAGAGAAAATCGGCCAGTTTTCTCTGCCTGCAGTCCGCATGCCGTGGGACCCCTTGGGTTCTAACCTGTTGCCTAGATTTATGCAGCGGACTGCCTTTCTCCCAAAGTGATAAACCGG…AGGTTGGTTTCACT; site = the 11-nt donor
Outline: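 Counts of recombinant UMIs were reported as log10(CPM+1). Before that, they were converted to CPM, averaged over replicates and scaled using control-derived factors. They came from PCR across the donor–target junction after Escherichia coli carrying the pair library and target plasmid was plated on IPTG (0.07 mM) plus kanamycin, or unselected, in two replicates each.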
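Also: IS621 bridge recombinase in Escherichia coli cells against a fixed T5 target plasmid.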

Row | Sequence | recombinant UMI read abundance (log10)
1 | CCTTTCGCATGGACCGGTTTTCCCGGTAATCCGTATTTGAT (site CCTTTCGCTAT) | 0.0105
2 | CCTTTCTCATGGACCGGTTTTCCCGGTAATCCGTATTTGGG (site CCATTCTCTCC) | 0.00388
3 | CCTTTCTCATGGACCGGTTTTCCCGGTAATCCGTATTTGGG (site CCCTTCTCTCC) | 0.0264
4 | CCTTTCTCATGGACCGGTTTTCCCGGTAATCCGTATTTGGG (site CCGTTCTCTCC) | 0.011
5 | CCTTTCTCATGGACCGGTTTTCCCGGTAATCCGTATTTGGG (site CCTTTCTCTCC) | 0
6 | CCTTTGGCATGGACCGGTTTTCCCGGTAATCCGTATTTGCT (site CATTTGGCTAG) | 0.00684
7 | CCTTTGGCATGGACCGGTTTTCCCGGTAATCCGTATTTGCT (site CCTTTGGCTAG) | 0.00901
8 | CCTTTGGCATGGACCGGTTTTCCCGGTAATCCGTATTTGCT (site CGTTTGGCTAG) | 0
9 | CCTTTGGCATGGACCGGTTTTCCCGGTAATCCGTATTTGCT (site CTTTTGGCTAG) | 0.00684
10 | CGAAAACCATGGACCGGTTTTCCCGGTAATCCGTATTTGTT (site CGAAAACCTAA) | 0
11 | CGAAAACCATGGACCGGTTTTCCCGGTAATCCGTATTTGTT (site CGGAATCCTAA) | 0
12 | CGAACATCATGGACCGGTTTTCCCGGTAATCCGTATTTGAT (site CGAACATCTAT) | 1.63
13 | CGAACATCATGGACCGGTTTTCCCGGTAATCCGTATTTGAT (site CGATCATCTAG) | 0
14 | CGAAGTGCATGGACCGGTTTTCCCGGTAATCCGTATTTGGG (site CGAAGTGCTCC) | 0.671
15 | CGAATGCCATGGACCGGTTTTCCCGGTAATCCGTATTTGAC (site CGAATGCCTGT) | 0.465
16 | CGACCATCATGGACCGGTTTTCCCGGTAATCCGTATTTGCT (site CGAACATCTAG) | 1.13
17 | CGACCATCATGGACCGGTTTTCCCGGTAATCCGTATTTGCT (site CGACCATCTAG) | 2.13
18 | CGACCATCATGGACCGGTTTTCCCGGTAATCCGTATTTGCT (site CGAGCATCTAG) | 0
19 | CGACCATCATGGACCGGTTTTCCCGGTAATCCGTATTTGCT (site CGATCATCTAG) | 0

Row | Sequence | recombinant UMI read abundance (log10)
20 | CGACGCGCATGGACCGGTTTTCCCGGTAATCCGTATTTGGG (site CGACGCGCTCC) | 0.672
21 | CGACTATCATGGACCGGTTTTCCCGGTAATCCGTATTTGTG (site CGACTATCTCA) | 3.11
22 | CGACTCTCATGGACCGGTTTTCCCGGTAATCCGTATTTGAC (site CGACTCTCTGT) | 2.88
23 | CGAGAACCATGGACCGGTTTTCCCGGTAATCCGTATTTGAT (site CGAGAACCTAT) | 0
24 | CGAGAACCATGGACCGGTTTTCCCGGTAATCCGTATTTGAT (site CGCGAACCTAT) | 0
25 | CGAGAACCATGGACCGGTTTTCCCGGTAATCCGTATTTGAT (site CGGGAACCTAT) | 0
26 | CGAGAACCATGGACCGGTTTTCCCGGTAATCCGTATTTGAT (site CGTGAACCTAT) | 0
27 | CGAGCACCATGGACCGGTTTTCCCGGTAATCCGTATTTGCT (site CGAGCACCTAG) | 0
28 | CGAGCGACATGGACCGGTTTTCCCGGTAATCCGTATTTGTT (site CGAACGACTAA) | 0.607
29 | CGAGCGACATGGACCGGTTTTCCCGGTAATCCGTATTTGTT (site CGACCGACTAA) | 0.0145
30 | CGAGCGACATGGACCGGTTTTCCCGGTAATCCGTATTTGTT (site CGAGCGACTAA) | 1.49
31 | CGAGCGACATGGACCGGTTTTCCCGGTAATCCGTATTTGTT (site CGATCGACTAA) | 0.0192
32 | CGAGCGCCATGGACCGGTTTTCCCGGTAATCCGTATTTGTG (site CAAGCGCCTCA) | 0.0595
33 | CGAGCGCCATGGACCGGTTTTCCCGGTAATCCGTATTTGTG (site CCAGCGCCTCA) | 0.0345
34 | CGAGCGCCATGGACCGGTTTTCCCGGTAATCCGTATTTGTG (site CGAGCGCCTCA) | 0.219
35 | CGAGCGCCATGGACCGGTTTTCCCGGTAATCCGTATTTGTG (site CTAGCGCCTCA) | 0.0326
36 | CGAGGAACATGGACCGGTTTTCCCGGTAATCCGTATTTGGG (site CGAGGAACTCC) | 1.53
37 | CGAGGAACATGGACCGGTTTTCCCGGTAATCCGTATTTGGG (site CGAGGACCTCC) | 0.0124
38 | CGAGGAACATGGACCGGTTTTCCCGGTAATCCGTATTTGGG (site CGAGGAGCTCC) | 0.376
